Earlier results in patent publication US10683273B2, “Compounds as DNA probes, methods and applications thereof” (JAWAHARLAL NEHRU CENTRE FOR ADVANCED SCIENTIFIC RESEARCH, priority 2015, dated 2020).

Legend:
[1] = literature values (footnotes a, b); cited from earlier work
DNA = settings: literature values (footnotes a, b); cited from earlier work

SMILES	Stokes shift in absence of DNA [1]	Stokes shift in presence of DNA (DNA)
CN(C)CCCN(CCCN(C)C)c1cc(C=C2Sc3ccccc3N2C)c2ccccc2[n+]1-c1ccccc1 [Picogreen]	30 nm	21 nm
CN1C(=Cc2cc[n+](C)c3ccccc23)Sc2ccccc21 [Thiazole orange (TO), Thiazole orange]	139 nm	18 nm
CN1C(=Cc2cc[n+](C)c3ccccc23)Oc2ccccc21 [Oxazole yellow (YO), Oxazole yellow]	100 nm	19 nm
CN1/C(=C/c2cc[n+](CCC[N+](C)(C)CCC[N+](C)(C)CCC[n+]3ccc(/C=C4/Oc5ccccc5N4C)c4ccccc43)c3ccccc23)Oc2ccccc21.[I-].[I-].[I-].[I-] [YOYO-1]	106 nm	20 nm
CN1/C(=C/c2cc[n+](CCC[N+](C)(C)CCC[N+](C)(C)CCC[n+]3ccc(/C=C4\Sc5ccccc5N4C)c4ccccc43)c3ccccc23)Sc2ccccc21.[I-].[I-].[I-].[I-] [TOTO-1]	149 nm	19 nm
CCCN(CCCN(C)C)c1cc(/C=C2/Sc3ccccc3N2C)c2ccccc2[n+]1-c1ccccc1 [SYBR Green 1]	36 nm	26 nm
